Source: US9169254B2, “Spiroimidazolone derivative” (Chugai Seiyaku Kabushiki Kaisha, priority 2009, dated 2015)

target: T1, human PTH1 receptor (Homo sapiens, UniProt Q03431); test: In vitro cAMP signal activity in HKRK-B7 cells (LLC-PK1 cells overexpressing the human PTH1 receptor); type: cell-based; details: HKRK-B7 cells; compound at 1×10^−3 M; cAMP produced as percentage of that produced by hPTH(1-34) at 100 nM
T1 sequence (Q03431 27-593): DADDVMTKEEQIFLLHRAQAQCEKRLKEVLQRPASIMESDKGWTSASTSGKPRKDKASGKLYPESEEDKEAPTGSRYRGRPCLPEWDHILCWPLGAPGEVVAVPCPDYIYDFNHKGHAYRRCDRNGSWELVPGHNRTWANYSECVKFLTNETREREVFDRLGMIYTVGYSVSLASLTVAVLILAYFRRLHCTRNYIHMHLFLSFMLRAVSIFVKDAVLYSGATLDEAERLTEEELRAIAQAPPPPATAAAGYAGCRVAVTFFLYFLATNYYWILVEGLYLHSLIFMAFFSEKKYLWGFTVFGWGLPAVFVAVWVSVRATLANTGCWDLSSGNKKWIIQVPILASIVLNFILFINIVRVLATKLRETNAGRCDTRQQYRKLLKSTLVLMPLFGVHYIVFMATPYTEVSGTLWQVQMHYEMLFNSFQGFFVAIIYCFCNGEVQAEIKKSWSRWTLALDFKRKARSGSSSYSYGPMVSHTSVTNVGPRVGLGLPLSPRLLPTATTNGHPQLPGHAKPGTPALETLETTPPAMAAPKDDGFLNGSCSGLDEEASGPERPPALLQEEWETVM

cAMP production activity (%)	SMILES
43	Cc1cc(CNC(=O)OC(C)(C)C)ccc1CCS(=O)(=O)N1CCC2(CC1)N=C(C(C)(C)C)NC2=O [Compound 162, {4-[2-(2-tert-Butyl-4-oxo-1,3,8-triaza-spiro[4.5]dec-1-ene-8-sulfonyl)-ethyl]-3-methyl-benzyl}-carbamic acid tert-butyl ester]
41	Cc1cc(CNC(=O)OC(C)(C)C)ccc1CCS(=O)(=O)N1CCC2(CC1)N=C(C1CCC(F)(F)CC1)NC2=O [Compound 163, (4-{2-[2-(4,4-difluoro-cyclohexyl)-4-oxo-1,3,8-triaza-spiro[4.5]dec-1-ene-8-sulfonyl]-ethyl}-3-methyl-benzyl)-carbamic acid tert-butyl ester]
45	Cc1cc(CNC(=O)OC(C)(C)C)ccc1CCS(=O)(=O)N1CCC2(CC1)N=C(c1ccc(F)c(C(F)(F)F)c1)NC2=O [Compound 164, (4-{2-[2-(4-fluoro-3-trifluoromethyl-phenyl)-4-oxo-1,3,8-triaza-spiro[4.5]dec-1-ene-8-sulfonyl]-ethyl}-3-methyl-benzyl)-carbamic acid tert-butyl ester]
37	Cc1cc(CNC(=O)OC(C)(C)C)ccc1CCS(=O)(=O)N1CCC2(CC1)N=C(C1CCOCC1)NC2=O [Compound 165, (3-methyl-4-{2-[4-oxo-2-(tetrahydro-pyran-4-yl)-1,3,8-triaza-spiro[4.5]dec-1-ene-8-sulfonyl]-ethyl}-benzyl)-carbamic acid tert-butyl ester]
69	Cc1cc(C(=O)N(C)C)ccc1CCS(=O)(=O)N1CCC2(CC1)N=C(c1cccc(COCC(F)(F)F)c1)NC2=O [Compound 168, 3,N,N-Trimethyl-4-(2-{4-oxo-2-[3-(2,2,2-trifluoro-ethoxymethyl)-phenyl]-1,3,8-triaza-spiro[4.5]dec-1-ene-8-sulfonyl}-ethyl)-benzamide]
71	Cc1cc(C(=O)N(C)C)ccc1CCS(=O)(=O)N1CCC2(CC1)N=C(c1cccc(COCC(F)F)c1)NC2=O [Compound 169, 4-(2-{2-[3-(2,2-difluoro-ethoxymethyl)-phenyl]-4-oxo-1,3,8-triaza-spiro[4.5]dec-1-ene-8-sulfonyl}-ethyl)-3,N,N-trimethyl-benzamide]
77	Cc1cc(C(=O)N(C)C)ccc1CCS(=O)(=O)N1CCC2(CC1)N=C(c1cccc(COCC(F)(F)C(F)F)c1)NC2=O [Compound 170, 3,N,N-trimethyl-4-(2-{4-oxo-2-[3-(2,2,3,3-tetrafluoro-propoxymethyl)-phenyl]-1,3,8-triaza-spiro[4.5]dec-1-ene-8-sulfonyl}-ethyl)-benzamide]
36	Cc1cc(C(=O)N(C)C)ccc1CCS(=O)(=O)N1CCC2(CC1)N=C(c1cccc(-c3c(C)noc3C)c1)NC2=O [Compound 171, 4-(2-{2-[3-(3,5-Dimethyl-isoxazol-4-yl)-phenyl]-4-oxo-1,3,8-triaza-spiro[4.5]dec-1-ene-8-sulfonyl}-ethyl)-3,N,N-trimethyl-benzamide]
68	COC(=O)c1cccc(C2=NC3(CCN(S(=O)(=O)CCc4ccc(C(=O)N(C)C)cc4C)CC3)C(=O)N2)c1 [Compound 174, 3-{8-[2-(4-Dimethylcarbamoyl-2-methyl-phenyl)-ethanesulfonyl]-4-oxo-1,3,8-triaza-spiro[4.5]dec-1-en-2-yl}-benzoic acid methyl ester]
73	Cc1cc(C(=O)N(C)C)ccc1CCS(=O)(=O)N1CCC2(CC1)N=C(C(C)(C)Oc1ccc(Cl)cc1Cl)NC2=O [Compound 175, 4-(2-{2-[1-(2,4-Dichloro-phenoxy)-1-methyl-ethyl]-4-oxo-1,3,8-triaza-spiro[4.5]dec-1-ene-8-sulfonyl}-ethyl)-3,N,N-trimethyl-benzamide]
74	Cc1cc(C(=O)N(C)C)ccc1CCS(=O)(=O)N1CCC2(CC1)N=C(COc1ccc(F)c(F)c1F)NC2=O [Compound 176, 3,N,N-trimethyl-4-{2-[4-oxo-2-(2,3,4-trifluoro-phenoxymethyl)-1,3,8-triaza-spiro[4.5]dec-1-ene-8-sulfonyl]-ethyl}-benzamide]

The next lines start with the compound.

SMILES	cAMP production activity (%)
Nc1cccc(CCS(=O)(=O)N2CCC3(CC2)N=C(C2CCCCC2)NC3=O)c1 [Compound 166, 8-[2-(3-Amino-phenyl)-ethanesulfonyl]-2-cyclohexyl-1,3,8-triaza-spiro[4.5]dec-1-en-4-one]	56
CC(=O)Nc1ccc(CCS(=O)(=O)N2CCC3(CC2)N=C(C2CCCCC2)NC3=O)cc1 [Compound 167, N-{4-[2-(2-Cyclohexyl-4-oxo-1,3,8-triaza-spiro[4.5]dec-1-ene-8-sulfonyl)-ethyl]-phenyl}-acetamide]	44
Cc1cc(C(=O)N(C)C)ccc1CCS(=O)(=O)N1CCC2(CC1)N=C(c1cccc(-c3ccccc3)c1)NC2=O [Compound 172, 4-[2-(2-biphenyl-3-yl-4-oxo-1,3,8-triaza-spiro[4.5]dec-1-ene-8-sulfonyl)-ethyl]-3,N,N-trimethyl-benzamide]	102
Cc1cc(C(=O)N(C)C)ccc1CCS(=O)(=O)N1CCC2(CC1)N=C(c1cccc(-c3cccnc3)c1)NC2=O [Compound 173, 3,N,N-trimethyl-4-{2-[4-oxo-2-(3-pyridin-3-yl-phenyl)-1,3,8-triaza-spiro[4.5]dec-1-ene-8-sulfonyl]-ethyl}-benzamide]	71
CCc1cccc(NS(=O)(=O)N2CCC3(CC2)N=C(C2CCCCC2)NC3=O)c1 [Compound 177, 2-Cyclohexyl-4-oxo-1,3,8-triaza-spiro[4.5]dec-1-ene-8-sulfonic (3-ethylphenyl)amide]	28
O=C1NC(C2CCCCC2)=NC12CCN(S(=O)(=O)/C=C/c1ccc3[nH]ccc3c1)CC2 [Compound 178, 2-Cyclohexyl-8-[(E)-2-(1H-indol-5-yl)-ethenesulfonyl]-1,3,8-triaza-spiro[4.5]dec-1-en-4-one]	29
O=C1NC(C2CCCCC2)=NC12CCN(S(=O)(=O)/C=C/c1ccccc1C(F)(F)F)CC2 [Compound 179, 2-cyclohexyl-8-[(E)-2-(2-trifluoromethyl-phenyl)-ethenesulfonyl]-1,3,8-triaza-spiro[4.5]dec-1-en-4-one]	49
COc1cccc(/C=C/S(=O)(=O)N2CCC3(CC2)N=C(C2CCCCC2)NC3=O)c1 [Compound 180, 2-cyclohexyl-8-[(E)-2-(3-methoxy-phenyl)-ethenesulfonyl]-1,3,8-triaza-spiro[4.5]dec-1-en-4-one]	60
COc1ccccc1/C=C/S(=O)(=O)N1CCC2(CC1)N=C(C1CCCCC1)NC2=O [Compound 181, 2-cyclohexyl-8-[(E)-2-(2-methoxy-phenyl)-ethenesulfonyl]-1,3,8-triaza-spiro[4.5]dec-1-en-4-one]	19
O=C1NC(C2CCCCC2)=NC12CCN(S(=O)(=O)/C=C/c1cccc3[nH]ccc13)CC2 [Compound 182, 2-cyclohexyl-8-[(E)-2-(1H-indol-4-yl)-ethenesulfonyl]-1,3,8-triaza-spiro[4.5]dec-1-en-4-one]	38
O=C1NC(C2CCCCC2)=NC12CCN(S(=O)(=O)/C=C/c1c(F)cccc1C(F)(F)F)CC2 [Compound 183, 2-cyclohexyl-8-[(E)-2-(2-fluoro-6-trifluoromethyl-phenyl)-ethenesulfonyl]-1,3,8-triaza-spiro[4.5]dec-1-en-4-one]	68
O=C1NC(C2CCCCC2)=NC12CCN(S(=O)(=O)/C=C/c1cccc(F)c1F)CC2 [Compound 184, 2-cyclohexyl-8-[(E)-2-(2,3-difluoro-phenyl)-ethenesulfonyl]-1,3,8-triaza-spiro[4.5]dec-1-en-4-one]	37
O=C1NC(C2CCCCC2)=NC12CCN(S(=O)(=O)/C=C/c1cccc(F)c1C(F)(F)F)CC2 [Compound 185, 2-cyclohexyl-8-[(E)-2-(3-fluoro-2-trifluoromethyl-phenyl)-ethenesulfonyl]-1,3,8-triaza-spiro[4.5]dec-1-en-4-one]	33
Cc1ccccc1/C=C/S(=O)(=O)N1CCC2(CC1)N=C(C1CCCCC1)NC2=O [Compound 186, 2-cyclohexyl-8-((E)-2-o-tolyl-ethenesulfonyl)-1,3,8-triaza-spiro[4.5]dec-1-en-4-one]	51
O=C1NC(C2CCCCC2)=NC12CCN(S(=O)(=O)/C=C/c1ccc(CCO)cc1)CC2 [Compound 187, 2-cyclohexyl-8-{(E)-2-[4-(2-hydroxy-ethyl)-phenyl]-ethenesulfonyl}-1,3,8-triaza-spiro[4.5]dec-1-en-4-one]	12
O=C1NC(C2CCCCC2)=NC12CCN(S(=O)(=O)/C=C/c1cccc3[nH]c(=O)oc13)CC2 [Compound 188, 2-cyclohexyl-8-[(E)-2-(2-oxo-2,3-dihydro-benzoxazol-7-yl)-ethenesulfonyl]-1,3,8-triaza-spiro[4.5]dec-1-en-4-one]	70
CN(C)C(=O)n1ccc2c(/C=C/S(=O)(=O)N3CCC4(CC3)N=C(C3CCCCC3)NC4=O)cccc21 [Compound 189, 4-[(E)-2-(2-cyclohexyl-4-oxo-1,3,8-triaza-spiro[4.5]dec-1-ene-8-sulfonyl)-vinyl]-indole-1-carboxylic acid dimethylamide]	54
